Laboratory results taken from patent US10385103B2, “Cell-permeable (ICP)-SOCS3 recombinant protein and uses thereof” (CELLIVERY THERAPEUTICS, INC., priority 2014, dated 2019).

Tests used:
Hep3B cells = assay: Induction of apoptosis, Annexin V/7-AAD staining; type: cell-based, human; details: example 20-2
Experimental: (§1) AGS cells (gastric carcinoma cell line) (American Type Culture Collection; ATCC) were seeded in a 12-well plate at a density of 1×10^5 cells/well, and then treated with 10 uM of aMTD/SD-fused SOCS3 for 14 hours. Cancer cell death was analyzed by Annexin V analysis. Annexin V/7-Aminoactinomycin D (7-AAD) staining was performed using flow cytometry according to the manufacturer's guidelines (BD Pharmingen, San Diego, Calif., USA). Briefly, cells were washed three times with ice-cold PBS. The cells were then resuspended in 100 μl of binding buffer and incubated with 1 μl of 7-AAD and 1 μl of annexin V-PE for 30 min in the dark at 37° C. Flow cytometric analysis was immediately performed using a guava easyCyte™ 8 Instrument (Merck Millipore, Darmstadt, Germany).
(§2) The effect of inducing apoptosis of Chang liver cells was measured in the same manner as in Example 11-2, except that as target cell lines, normal Chang liver cells and hepatocellular carcinoma cell lines, Hep3B, HepG2, Huh7, and SK-HEP-1 were used, and as a reference drug, 5-FU® (IC50: 40 μM) was used.

SK-Hep-1 cells = assay: Induction of apoptosis, Annexin V/7-AAD staining; type: cell-based, human; details: example 20-2
Experimental: as §1, §2

Huh7 cells [1] = assay: Induction of apoptosis, Annexin V/7-AAD staining; type: cell-based, human; details: example 20-2
Experimental: as §1, §2

[2] = read-out: IC50 (stated for reference drug); cited from earlier work
[3] = tested on: HCCs (Hep3B, HepG2, Huh7 and SK-HEP-1); assay: Inhibition of cell cycle progression (PI staining, flow cytometry); type: cell-based, human; details: reference drugs
Experimental: To further determine the effect of iCP-SOCS3 on the tumorigenicity of hepatocellular carcinoma cells, we subsequently investigated whether iCP-SOCS3 regulates cell cycle progression in HCCs (Hep3B, HepG2, Huh7 and SK-HEP-1).
HCCs and normal cells were treated with 10 uM protein (Non-CP-SOCS3 (HS3B) and iCP-SOSC3 (HM165S3B)) for 8 hrs. After the treatment, cells were washed twice with cold PBS and re-suspended in 1 ml cold PBS, fixed in cold 70% ethanol, washed with cold PBS twice and re-suspended in PI master mix (PI 10 ug/ml (SIGMA, USA), 50 ug/ml RNase A (Invitrogen, USA) in staining buffer) at a final cell density of 2×10^5 cell/ml. The cell mixtures were incubated 30 min in the dark at 4° C. Flow cytometric analysis was immediately performed using a guava easyCyte™ 8 Instrument (Merck Millipore, Darmstadt, Germany).

HepG2 cells = assay: Induction of apoptosis, Annexin V/7-AAD staining; type: cell-based, human
Experimental: as §1
Annexin V/7-Aminoactinomycin D (7-AAD) staining was performed using flow cytometry according to the manufacturer's guidelines (BD Pharmingen, San Diego, Calif., USA). Briefly, 1×10^6 cells were washed three times with ice-cold PBS. The cells were then resuspended in 100 μl of binding buffer and incubated with 1 μl of 7-AAD and 1 μl of […] for 30 min in the dark at 4° C. Flow cytometric analysis was immediately performed using a guava easyCyte™ 8 Instrument (Merck Millipore, Darmstadt, Germany). In this regard, Cisplatin® (IC50: 30 μM) was used as a reference drug.
as §2

HepG2 tumor = assay: Anti-tumor activity in cell-derived xenograft model; details: iCP-SOCS3 IV 50 mg/kg every day; Cisplatin IP 4 mg/kg twice a week; 3 weeks
Experimental: Female Balb/c^nu/nu mice (5-week-old, Doo-Yeol Biotech Co. Ltd. Korea) were subcutaneously implanted with Hep3B2.1-7 tumor block (1 mm^3) into the left back side of the mouse. […] Tumor size was monitored by measuring the longest (length) and shortest dimensions (width) once a day with a dial caliper, and tumor volume was calculated as width2×length×0.5.
Then, tumor volumes were examined. […] Then, tumor volumes were examined.

Huh7 cells [4] = assay: Induction of apoptosis, TUNEL assay; type: cell-based, human; details: 10 μM, 24 hr, 2% fetal bovine serum
Experimental: Apoptotic cells were analyzed using terminal dUTP nick-end labeling (TUNEL) assay with In Situ Cell Death Detection kit TMR red (Roche, 4056 Basel, Switzerland). Cells were treated for 24 hr with 10 μM HS3B or HM165S3B proteins with 2% fetal bovine serum and apoptotic cells were visualized by TUNEL staining. Treated cells were washed with cold PBS two times, fixed in 4% paraformaldehyde (PFA, Junsei, Tokyo, Japan) for 1 hr at room temperature, and incubated in 0.1% Triton X-100 for 2 min on the ice. Cells were washed with cold PBS twice, and treated TUNEL reaction mixture for 1 hr at 37° C. in dark, washed cold PBS three times and observed by fluorescence microscopy (Nikon, Tokyo, Japan). Cisplatin® (IC50: 30 μM) was used for reference drug.

NIH3T3 cells = assay: Intracellular delivery and localization of aMTD-/rPeptide-fused CRA recombinant proteins (confocal laser scanning microscopy); type: cell-based, mouse; details: 10 μM FITC-labeled protein, 1 hour, 37
Experimental: NIH3T3 cells were exposed to 10 μM of FITC-labeled protein for 1 hour at 37, and nuclei were counterstained with DAPI. Then, cells were examined by confocal laser scanning microscopy (FIG. 7). […] The intracellular localization of the fluorescent signal was determined by confocal laser scanning microscopy (LSM700, Zeiss, Germany; FIGS. 7 and 8).

RAW 264.7 cells = assay: Quantitative cell-permeability of FITC-labeled aMTD- or rPeptide-fused CRA recombinant proteins (flow cytometry); type: cell-based; details: RAW 264.7 cells, 10 μM FITC-labeled recombinant protein, 1 hour
Summary of the method: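 RAW 264.7 cells were exposed to 10 μM FITC-labeled recombinant proteins, consisting of a non-functional cargo fused to aMTD or rPeptide sequences, for 1 hour at 37° C. Cells were washed three times in cold PBS and treated with 0.25% tripsin/EDTA for 20 minutes at 37° C. to strip surface-bound protein, then uptake was measured by flow cytometry.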

Row | Compound | induction of apoptosis (Annexin V), Hep3B (Hep3B cells) | induction of apoptosis (Annexin V), SK-HEP-1 (SK-Hep-1 cells) | induction of apoptosis (Annexin V), Huh7 (Huh7 cells [1]) | IC50 [2] | amount of subG1 [3] | induction of apoptosis (Annexin V), HepG2 (HepG2 cells; example 20-2) | body weight / adverse effects (HepG2 tumor) | induction of apoptosis (Annexin V), HepG2, dose dependence (HepG2 cells; example 20-1) | induction of apoptosis (TUNEL), Huh7 (Huh7 cells [4]) | intracellular delivery and localization (internalized fluorescence signal) (NIH3T3 cells) | Relative Ratio to aMTD AVE (RAW 264.7 cells)
1 | O=c1[nH]cc(F)c(=O)[nH]1 [5-FU, reference compound] | hardly induced apoptosis | hardly induced apoptosis | hardly induced apoptosis | 40 µM | hardly increased the amount of subG1 | hardly induced apoptosis | – | – | – | – | –
2 | N.N.[Cl][Pt][Cl] [Cisplatin, reference compound] | – | – | – | 30 µM | hardly increased the amount of subG1 | – | remarkable weight loss | hardly induced apoptosis | hardly induced apoptosis | – | –
3 | YYNQSTCGGQCY [rP38, reference compound] | – | – | – | – | – | – | – | – | – | did not show internalized fluorescence signal | 0.3±0.04 fold
